Experimental data reported in US20250320213A1, “Nitrogen-Containing Heterocyclic Compounds” (Pfizer Inc., priority 2024, published 2025).
pEC50, pIC50: −log10 of the molar value. Where two headings read alike, the source gives them in different places.

Key:
[1] = tested on: CCL17 secretion in peripheral human whole blood; assay: Human Whole Blood (HWB) CCL17 TR-FRET Assay (IL-13 stimulated CCL17 secretion); format: cell-based
Outline: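 Heparin-anticoagulated human blood; cpd 11-pt 3-fold dilution, duplicate, 2 h 37 °C preinc; IL-13 10 ng/mL final, 48 h 37 °C; spin, serum CCL17 by TR-FRET ELISA, 16 h RT, 665/615 ratio; IC50.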

STAT6 = target: T1, STAT6 (Homo sapiens, UniProt P42226); assay: STAT6 Reporter Luciferase Assay (IL-13 stimulated HaCaT keratinocyte NanoLuc reporter cells); format: cell-based; details: read-out: Reporter EC50
T1 construct: stably transfected HaCaT keratinocyte cell line, which expresses NanoLuc luciferase reporter gene under the transcriptional control of the STAT6 responsive promoter; endogenous in cells; host or cells: HaCaT keratinocyte reporter cell line (stably transfected with a NanoLuc reporter)
T1 sequence (P42226 1-847): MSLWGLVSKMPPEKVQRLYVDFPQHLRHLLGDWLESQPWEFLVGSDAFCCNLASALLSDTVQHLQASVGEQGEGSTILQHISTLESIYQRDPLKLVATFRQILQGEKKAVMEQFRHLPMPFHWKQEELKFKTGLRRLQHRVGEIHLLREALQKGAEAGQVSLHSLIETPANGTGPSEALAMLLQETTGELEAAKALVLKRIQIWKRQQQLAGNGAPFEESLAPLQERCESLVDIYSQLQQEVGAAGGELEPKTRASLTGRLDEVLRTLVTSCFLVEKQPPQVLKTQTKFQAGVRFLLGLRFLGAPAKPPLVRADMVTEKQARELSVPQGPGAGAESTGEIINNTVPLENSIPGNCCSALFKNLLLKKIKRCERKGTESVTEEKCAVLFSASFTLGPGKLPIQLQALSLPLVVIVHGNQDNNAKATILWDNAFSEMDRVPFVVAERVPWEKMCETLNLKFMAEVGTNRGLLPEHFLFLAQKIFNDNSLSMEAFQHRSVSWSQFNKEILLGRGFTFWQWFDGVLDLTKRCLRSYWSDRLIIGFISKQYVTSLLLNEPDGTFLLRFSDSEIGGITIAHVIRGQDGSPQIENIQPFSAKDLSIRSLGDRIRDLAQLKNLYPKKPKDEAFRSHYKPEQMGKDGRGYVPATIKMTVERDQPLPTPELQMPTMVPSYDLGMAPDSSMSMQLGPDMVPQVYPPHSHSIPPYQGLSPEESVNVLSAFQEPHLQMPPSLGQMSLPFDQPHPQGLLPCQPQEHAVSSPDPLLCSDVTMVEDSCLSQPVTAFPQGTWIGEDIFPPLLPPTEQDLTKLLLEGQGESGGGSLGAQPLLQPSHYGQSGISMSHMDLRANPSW
Outline: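 Compounds were tested as 11-point, 4-fold series in duplicate, applied for 2 h at 37 °C in low-serum (2% FBS) DMEM. The cells were a stable HaCaT line with NanoLuc under a STAT6-responsive IL-13Ra2 promoter. After 4 h with 0.12 nM IL-13, Nano-Glo luminescence was measured.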

[2] = Homo sapiens, 48 h, inhibition of CCL17 secretion in human whole blood, 10 ng/mL IL13, 48 hours
[3] = STAT6 NanoLuc luciferase reporter, IL-13 stimulated HaCaT keratinocyte cells
[4] = Homo sapiens, 48 h, human whole blood, 10 ng/mL IL13, 48 hours
[5] = IL-13 stimulated HaCaT STAT6 NanoLuc reporter cells
[6] = Homo sapiens, 48 h, human whole blood, IL-13 stimulated

Row | SMILES | pIC50 [1, 2] | pEC50 (STAT6; [3]) | pEC50 (STAT6; [5]) | other results
1 | CC(C)n1nc(C(=O)NCc2ccc(NC(=O)N(C)C)cc2)c2c1CCN(c1ccc(N3CC(CO)OC3=O)cn1)C2 (racemic) [Example 80, rac-(R)-N-(4-(3,3-dimethylureido)benzyl)-5-(5-(5-(hydroxymethyl)-2-oxooxazolidin-3-yl)pyridin-2-yl)-1-isopropyl-4,5,6,7-tetrahydro-1H-pyrazolo[4,3-c]pyridine-3-carboxamide] | < 4.52 | < 5.00 |  | 
2 | CC(C)n1nc(C(=O)NCc2ccc(NC(=O)N3CCN(C)CC3)cc2)c2c1[C@@H](C)CN(c1ccc(C(=O)N3Cc4cccnc4C3)cn1)C2 [Example 611, (S)-5-(5-(6,7-dihydro-5H-pyrrolo[3,4-b]pyridine-6-carbonyl)pyridin-2-yl)-1-isopropyl-7-methyl-N-(4-(4-methylpiperazine-1-carboxamido)benzyl)-4,5,6,7-tetrahydro-1H-pyrazolo[4,3-c]pyridine-3-carboxamide] |  |  | 9.70 | pIC50 [1, 4]: 8.30
3 | CNC(=O)Nc1ccc(CNC(=O)c2nn(C(C)C)c3c2CN(c2ccc(-n4c(C)nn(C)c4=O)cn2)C[C@@H]3C)cc1 [Example 521, (S)-5-(5-(1,3-dimethyl-5-oxo-1,5-dihydro-4H-1,2,4-triazol-4-yl)pyridin-2-yl)-1-isopropyl-7-methyl-N-(4-(3-methylureido)benzyl)-4,5,6,7-tetrahydro-1H-pyrazolo[4,3-c]pyridine-3-carboxamide] |  |  | 8.70 | pIC50 [1, 6]: 7.47
4 | CC(C)n1nc(C(=O)NCc2ccc(NC(=O)N(C)C)cc2)c2c1CCN(c1ccc(N3CCN(C)C3=O)cn1)C2 [Example 60, N-(4-(3,3-dimethylureido)benzyl)-1-isopropyl-5-(5-(3-methyl-2-oxoimidazolidin-1-yl)pyridin-2-yl)-4,5,6,7-tetrahydro-1H-pyrazolo[4,3-c]pyridine-3-carboxamide] | 6.04 | 7.49 |  | 
5 | CNC(=O)Nc1ccc(CNC(=O)c2nn(C(C)C)c3c2CN(c2ncc(-c4nccn4C)cn2)C[C@@H]3C)cc1 (single isomer, unassigned) [Example 515] |  |  | 9.00 | pIC50 [1, 6]: 8.22
6 | CCC1CN(c2ccc(C(=O)N(C)C)cn2)Cc2c(C(=O)NCc3ccc(NC(=O)N(C)C)cc3)nn(C)c21 (single isomer, unassigned) [Example 78, rel-(R or S)-5-(5-(Dimethylcarbamoyl)pyridin-2-yl)-N-(4-(3,3-dimethylureido)benzyl)-7-ethyl-1-methyl-4,5,6,7-tetrahydro-1H-pyrazolo[4,3-c]pyridine-3-carboxamide] |  | 8.52 |  | pIC50 ([1]; inhibition of CCL17 secretion in human whole blood, 10 ng/mL IL13, 48 hours): 7.85
7 | CC(C)n1nc(C(=O)NCc2ccc(NC(=O)N3CC[C@H](C#N)C3)cc2)c2c1CCN(c1ccc(C(=O)N(C)C)cn1)C2 [Example 182, (S)-N-(4-(3-cyanopyrrolidine-1-carboxamido)benzyl)-5-(5-(dimethylcarbamoyl)pyridin-2-yl)-1-isopropyl-4,5,6,7-tetrahydro-1H-pyrazolo[4,3-c]pyridine-3-carboxamide] |  |  | 7.77 | pIC50 [1, 6]: 6.88
8 | CN(C)C(=O)Nc1ccc(CNC(=O)c2nn(C)c3c2CN(c2ncc(C(=O)N(C)C)cn2)CC3C(F)(F)F)cc1 (single isomer, unassigned) [Example 392, rel-(R or S)-5-(5-(dimethylcarbamoyl)pyrimidin-2-yl)-N-(4-(3,3-dimethylureido)benzyl)-1-methyl-7-(trifluoromethyl)-4,5,6,7-tetrahydro-1H-pyrazolo[4,3-c]pyridine-3-carboxamide] |  |  | 6.25 | pIC50 [1, 6]: 5.97
9 | CCC1CN(c2ccc(C(=O)N(C)C)cn2)Cc2c(C(=O)NCc3ccc(NC(=O)N(C)C)cc3)nn(C)c21 (racemic) [Example 77, rac-(R)-5-(5-(Dimethylcarbamoyl)pyridin-2-yl)-N-(4-(3,3-dimethylureido)benzyl)-7-ethyl-1-methyl-4,5,6,7-tetrahydro-1H-pyrazolo[4,3-c]pyridine-3-carboxamide] | 7.35 | 8.40 |  | 
10 | CC(C)n1nc(C(=O)NCc2ccc(NC(=O)NCc3ccc(NC(=O)N(C)C)cc3)cc2)c2c1[C@@H](C)CN(c1ncc(C(=O)N(C)C)cn1)C2 [Example 492, (S)-5-(5-(dimethylcarbamoyl)pyrimidin-2-yl)-N-(4-(3-(4-(3,3-dimethylureido)benzyl)ureido)benzyl)-1-isopropyl-7-methyl-4,5,6,7-tetrahydro-1H-pyrazolo[4,3-c]pyridine-3-carboxamide] |  |  | 9.30 | pIC50 [1, 6]: 8.40
11 | CC(C)n1nc(C(=O)NCc2ccc(NC(=O)N(C)C)cc2)c2c1[C@@H](C)CN(c1ccc(C(=O)N(C)C)cn1)C2 (single isomer, unassigned) [Example 128] | 8.52 | 9.52 |  | 
12 | COCC1(N)CCN(C(=O)Nc2ccc(CNC(=O)c3nn(C(C)C)c4c3CN(c3ccc(C(=O)N(C)C)cc3)C[C@@H]4C)cc2F)CC1 [Example 639, (S)-N-(4-(4-amino-4-(methoxymethyl)piperidine-1-carboxamido)-3-fluorobenzyl)-5-(4-(dimethylcarbamoyl)phenyl)-1-isopropyl-7-methyl-4,5,6,7-tetrahydro-1H-pyrazolo[4,3-c]pyridine-3-carboxamide] |  |  | 9.00 | pIC50 [1, 4]: 8.10
13 | CC(C)n1nc(C(=O)NCc2ccc(NC(=O)N3CC[C@H](F)C3)cc2)c2c1CCN(c1ccc(C(=O)N(C)C)cn1)C2 [Example 153, (S)-5-(5-(dimethylcarbamoyl)pyridin-2-yl)-N-(4-(3-fluoropyrrolidine-1-carboxamido)benzyl)-1-isopropyl-4,5,6,7-tetrahydro-1H-pyrazolo[4,3-c]pyridine-3-carboxamide] | 6.97 | 7.96 |  | 
14 | CC(C)n1nc(C(=O)NCc2ccc(NC(=O)NC3CCC3)cc2)c2c1CCN(c1ccc(C(=O)N(C)C)cn1)C2 [Example 157, N-(4-(3-cyclobutylureido)benzyl)-5-(5-(dimethylcarbamoyl)pyridin-2-yl)-1-isopropyl-4,5,6,7-tetrahydro-1H-pyrazolo[4,3-c]pyridine-3-carboxamide] | 6.27 | 8.10 |  | 
15 | CC(C)n1nc(C(=O)NCc2ccc(NC(=O)N(C)C)cc2)c2c1CCN(c1ccc(N3CCC4(CC4)C3=O)cn1)C2 [Example 65, N-(4-(3,3-dimethylureido)benzyl)-1-isopropyl-5-(5-(4-oxo-5-azaspiro[2.4]heptan-5-yl)pyridin-2-yl)-4,5,6,7-tetrahydro-1H-pyrazolo[4,3-c]pyridine-3-carboxamide] | 4.55 | 6.68 |  | 
16 | CC(C)n1nc(C(=O)NCc2ccc(NC(=O)N3CCCC3CO)cc2)c2c1CCN(c1ccc(C(=O)N(C)C)cn1)C2 (racemic) [Example 174, rac-(R)-5-(5-(dimethylcarbamoyl)pyridin-2-yl)-N-(4-(2-(hydroxymethyl)pyrrolidine-1-carboxamido)benzyl)-1-isopropyl-4,5,6,7-tetrahydro-1H-pyrazolo[4,3-c]pyridine-3-carboxamide] | 6.67 | 7.40 |  | 
17 | CC(C)c1nc(C(=O)NCc2ccc(NC(=O)N(C)C)cc2)c2n1C(C)CN(c1ccc(C(=O)N(C)C)cc1)C2 (single isomer, unassigned) [Example 538, rel-(R or S)-7-(4-(Dimethylcarbamoyl)phenyl)-N-(4-(3,3-dimethylureido)benzyl)-3-isopropyl-5-methyl-5,6,7,8-tetrahydroimidazo[1,5-a]pyrazine-1-carboxamide] |  |  | 9.70 | pIC50 ([1]; human whole blood, 10 ng/mL IL13, 48 hours): 8.30
18 | CCn1nc(C(=O)NCc2ccc(NC(=O)N(C)C)cc2)c2c1[C@@H](C)CN(c1ccc(C(=O)N(C)C)cn1)C2 [Example 126, (S)-5-(5-(Dimethylcarbamoyl)pyridin-2-yl)-N-(4-(3,3-dimethylureido)benzyl)-1-ethyl-7-methyl-4,5,6,7-tetrahydro-1H-pyrazolo[4,3-c]pyridine-3-carboxamide] | 8.30 | 9.00 |  | 
